Data published in patent US12187758B2 (ROME Therapeutics, Inc., priority 2022, dated 2025).

Assays:
Format in all cases: cell-based
[1] = tested on: THP1-Dual KO-TREX1 cells; assay: THP1 TREX1 KO inhibition assay (type 1 interferon response); conditions: Homo sapiens, 144 h, type 1 interferon (QUANTI-LUC), 1 μM 5-aza-2′-deoxycytidine, six days
How it was run: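 THP1-Dual KO-TREX1 cells were treated with a dose titration of compound, alone or with 1 μM 5-aza-2′-deoxycytidine, for six days at 37 °C. Type 1 interferon was read as secreted luciferase (QUANTI-LUC) in the supernatant, and viability by CellTiter-Glo luminescence.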

[2] = Mitochondria toxicity assay with PC3 cells, in-cell ELISA COX-1; conditions: 5 days treatment
How it was run: (§1)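 This in-cell ELISA was run on fixed, permeabilized PC3 cells after 5-day exposure to titrated compound, with cytotoxicity measured on a duplicate plate. Results are reported as categories A (<1.0 μM) to E (>100.0 μM).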

[3] = tested on: SDH-A (succinate dehydrogenase-A); assay: Mitochondria toxicity assay with PC3 cells, in-cell ELISA SDH-A; conditions: 5 days treatment
How it was run: as §1

[4] = tested on: PC3 cells; assay: Mitochondria toxicity assay with PC3 cells, cytotoxicity (Cell Titer Glo); conditions: Homo sapiens, PC-3, 120 h, 5 days treatment
How it was run: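 Cytotoxicity reported in μM bins, A <1.0 through E >100.0. Measured via Cell Titer Glo luminescence (30 min, room temperature) after 5-day dose-titration treatment of PC3 cells, grown in F-12K/10% FBS, at 37° C, 5% CO2.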

[5] = tested on: 7S mitochondria DNA; assay: Mitochondria DNA assay with PC3 cells; conditions: Homo sapiens, PC-3, 120 h, 5 days, 7S mitochondria DNA level by qPCR relative to 18S or GAPDH
Method: Exemplary compounds were tested for their effect on levels of 7S mitochondria DNA, and the DNA of housekeeping genes 18S and GAPDH. Reduction of 7S mitochondria DNA indicates off-target inhibition of mitochondrial DNA synthesis, which leads to mitochondrial toxicity. Assay procedures and results are described below.
PC3 cells were purchased from ATCC and cultured in F-12 Kaighn's modified medium (Hyclone), 10% heat-inactivated fetal bovine serum (Gibco), 1% Penicillin-Streptomycin (Invitrogen). PC3 cells were treated with a dose titration of a test compound on 6 well plates for 5 days at 37° C., 5% CO2 in a humidified incubator.
Cells were harvested and mitochondria DNA extraction was performed using DNeasy Blood & Tissue Kit (Qiagen) according to the manufacture's instruction.
Mitochondria 7S and housekeeping genes 18S and GAPDH DNA was quantified by multiplex qPCR with the PowerUp™ SYBR™ Green system (Applied Biosystems). Prepare reaction mix consisting of 5 μl of 2× PowerUp™ SYBR™ Green Master Mix, 1 μl of 5 μM Primers for 7S, 18S, or GAPDH, 4 μl of DNA template from DNA extraction above. The primer sequences are below:
qPCR was performed on QuantStudio™ 7 Flex RealTime qPCR system (Applied Biosystems) as set forth below: • a. 50° C. for 2 minutes, then • b. 95° C. for 2 minutes, then • c. 95° C. for 15 seconds, then • d. 60° C. for 60 seconds, • where then steps (c) and (d) were repeated 60 times.
Threshold was calculated by QuantStudio™ 7 Flex Software (ThermoFisher Scientific) using the default settings. Ct values were used to evaluate the relative mitochondria DNA (mtDNA) level using the following formula: ΔCt=Ct (7S target gene)−Ct (18S) or ΔCt=Ct (7S target gene)−Ct (GAPDH). Relative mtDNA level=2^−Δct. Expression fold over DMSO control=2^−Δct (compound treated group)/2^−Δct (DMSO group)
In the table “A” represents values≤0.1 μM; “B” represents values from >0.1 μM to ≤1.0 μM; “C” represents values from >1.0 μM to ≤10.0 μM; “D” represents values from >10.0 μM to ≤100.0 μM; and “E” represents values>100.0 μM.

[6] = tested on: phosphorylated TANK-binding kinase 1 (pTBK1); assay: UVB-induced pTBK1 in HaCaT cells; conditions: Homo sapiens, light or radiation study, pTBK1 response curves, 72 hours compound treatment, UVB
Method: pTBK1 is an important signaling molecule in regulating inflammatory responses. HaCaT cells were plated in 6-well plates at a density of ˜100 k/well in HaCaT media (DMEM, optimized 1× (Addex Bio)+ 1% pen strep (Gibco)^+ 5% heat inactivated fetal bovine serum (Gibco)). The cells were then cultured at 37° C. overnight. The next day, the cells were treated with the test compounds. Each test compound was diluted and added to media aliquots to provide desired concentrations. To add the test compound+media mixture, an equivalent amount of media from each well was aspirated and then replenished with the media dosed with the test compound. The cells were then cultured for an additional 72 hours with compound treatment prior to UVB exposure.
The media was then aspirated from the wells, with the remaining cells at least 80% confluent in each well. One mL of PBS was then added to each well, and the plate was then placed under a UVB lamp. A UVB sensor was positioned near the plate to register the plate's exposure. The cells were exposed to the UVB light until they reached 0.1 mJ/cm2. Then the plate was covered and transferred to a sterile hood for processing.
The PBS was aspirated out of the wells, and the wells were replenished with 3 mL fresh culture media. The cells were then cultured for an additional 24 hours, and samples were processed 24 hours post-UVB exposure. To process the samples, the media was aspirated, the plate placed on ice, and the cells washed with cold PBS, which was then aspirated off. Another 1 mL of cold PBS was added to each well. The cells were then scraped in the cold PBS solution and transferred to conical tubes on ice. The cells were then spun at ≥1000 RCF at 4° C. for 5 minutes. The cells were then resuspended in 1 mL of cold PBS and transferred to a microcentrifuge tube. The cells were spun at ≥1000 RCF at 4° C. for another 5 minutes, and the PBS was aspirated off. The cell pellet was prepared for lysis.
A RIPA lysis buffer (#BP-115, Boston BioProducts) was added to a Halt protease and […] inhibitor cocktail (#78440, ThermoFisher), and the mixture was cooled on ice. About 30 μL of the lysis buffer mix was added to the cells. The samples were briefly vortexed and then incubated on ice for at least 15 minutes. The cells were then spun≥1000 RCF at 4° C. for 5 minutes and the supernatant was transferred to a clean tube. The protein concentration of the cell lysate was measured using Pierce™ Rapid Gold BCA Protein Assay Kit #AF3225 (ThermoFisher). ELISA analysis was run on select samples using one of the following kits: • a. FastScan™ Phospho-TBK1/NAK (Ser172) ELISA Kit #46948 (Cell Signaling Technologies) • b. FastScan™ Total TBK1/NAK ELISA Kit #15816 (Cell Signaling Technologies) • c. FastScan™ Phospho-STING (Ser366) ELISA Kit #82083 (Cell Signaling Technologies) • d. FastScan™ Phospho-IRF-3 (Ser396) ELISA Kit #50386 (Cell Signaling Technologies) • e. FastScan™ Total IRF-3 ELISA Kit #29771 (Cell Signaling Technologies) • f. Phospho-NAK/TBK1 (S172) ELISA Kit (ab279952) (Abcam) • g. Phospho-IRF3 (S386) ELISA Kit (ab279833) (Abcam) Part II—Results
In the table “A” represents values≤0.50 μM; “B” represents values from >0.50 μM to ≤2.0 μM; “C” represents values from >2.0 μM to ≤5.0 μM; “D” represents values from >5.0 μM to ≤10 μM; and “E” represents values>10 μM.

| Compound | IC50 [1] | IC50 [2] | IC50 [3] | IC50 [4] | IC50 [5] | IC50 [6] |
| --- | --- | --- | --- | --- | --- | --- |
| Nc1ccn([C@@H]2O[C@@](CO)(CCl)[C@@H](O)[C@H]2F)c(=O)n1 [Compound 31, 4-amino-1-((2R,3R,4R,5R)-5-(chloromethyl)-3-fluoro-4-hydroxy-5-(hydroxymethyl)tetrahydrofuran-2-yl)pyrimidin-2(1H)-one] | > 1 µM | 10 to 50 µM | 10 to 50 µM | 10 to 50 µM | 0.1 to 1 µM |  |
| Nc1nc(=O)n([C@@H]2O[C@@](CO)(CCl)[C@@H](O)[C@@H]2O)cc1F [Compound 73, 4-amino-1-((2R,3S,4S,5R)-5-(chloromethyl)-3,4-dihydroxy-5-(hydroxymethyl)tetrahydrofuran-2-yl)-5-fluoropyrimidin-2(1H)-one] | > 1 µM | > 100 µM | > 100 µM | > 100 µM | > 100 µM |  |
| [N-]=[N+]=N[C@]1(CO)O[C@@H](c2cc(I)c3c(N)ncnn23)C[C@@H]1O [Compound 161, (2R,3S,5R)-5-(4-amino-5-iodopyrrolo[2,1-f][1,2,4]triazin-7-yl)-2-azido-2-(hydroxymethyl)tetrahydrofuran-3-ol] | 0.05 to 0.1 µM | 1 to 10 µM | 1 to 10 µM | 1 to 10 µM | > 100 µM |  |
| CC(C)C(=O)OC[C@@]1(CCl)O[C@@H](n2cc(F)c(N)nc2=O)[C@@H](F)[C@@H]1OC(=O)C(C)C [Compound 173, (2R,3R,4S,5R)-5-(4-amino-5-fluoro-2-oxopyrimidin-1(2H)-yl)-2-(chloromethyl)-4-fluoro-2-((isobutyryloxy)methyl) tetrahydrofuran-3-yl isobutyrate] | > 1 µM | 50 to 100 µM | > 100 µM | > 100 µM | > 100 µM |  |
| Nc1ccn([C@H]2C[C@H](O)[C@](CO)(C(F)(F)F)O2)c(=O)n1 [Compound 21, 4-amino-1-((2R,4S,5R)-4-hydroxy-5-(hydroxymethyl)-5-(trifluoromethyl)tetrahydrofuran-2-yl)pyrimidin-2(1H)-one] |  | > 100 µM | > 100 µM | > 100 µM |  | > 10 µM |
| C#C[C@]1(CO)O[C@@H](n2cc(F)c(N)nc2=O)[C@@H](O)[C@@H]1O [Compound 116, 4-amino-1-((2R,3S,4S,5R)-5-ethynyl-3,4-dihydroxy-5-(hydroxymethyl)tetrahydrofuran-2-yl)-5-fluoropyrimidin-2(1H)-one] | > 1 µM | > 100 µM | > 100 µM | > 100 µM | > 100 µM |  |
| CC[C@]1(CO)O[C@@H](n2cc(F)c(N)nc2=O)[C@@H](F)[C@@H]1O [Compound 77, 4-amino-1-[(2R,3S,4R,5R)-5-ethyl-3-fluoro-4-hydroxy-5-(hydroxymethyl)oxolan-2-yl]-5-fluoropyrimidin-2-one] | > 1 µM | > 100 µM | > 100 µM | > 100 µM | > 100 µM |  |
| Nc1nc(=O)n([C@@H]2O[C@@](CO)(CBr)[C@@H](O)[C@@H]2F)cc1F [Compound 86, 4-amino-1-[(2R,3S,4R,5R)-5-(bromomethyl)-3-fluoro-4-hydroxy-5-(hydroxymethyl)oxolan-2-yl]-5-fluoropyrimidin-2-one] | > 1 µM | > 100 µM | > 100 µM | > 100 µM | > 100 µM |  |
| CC(C)C(=O)OC[C@@]1(CCl)O[C@@H](n2ccc(N)nc2=O)[C@H](F)[C@@H]1OC(=O)C(C)C [Compound 24, (2R,3R,4R,5R)-5-(4-amino-2-oxopyrimidin-1(2H)-yl)-2-(chloromethyl)-4-fluoro-2-((isobutyryloxy)methyl) tetrahydrofuran-3-yl isobutyrate] | > 1 µM | > 100 µM | > 100 µM | > 100 µM | > 100 µM |  |
